Test results published in patent US6713638B2, “2-amino-3-aroyl-4,5 alkylthiophenes: agonist allosteric enhancers at human A1 adenosine receptors” (priority 2001, dated 2004).
“Also recorded” adds a separate entry of the source.

Assays:
hA1AR = molecular target: T1, hA1AR (Homo sapiens, UniProt P30542); assay: Assay of AE (allosteric enhancer) activity: slowing of 125I-ABA dissociation from the A1AR-G protein ternary complex; assay type: binding; details: CHO-K1 membranes; for AE Score, %: 0.1 mM final AE, specifically bound 125I-ABA remaining after 10 minutes of dissociation, Mean ± SEM (N = 3); for AE activity (in words): hA1AR
T1 construct: expressed in transfected cells; membranes
T1 sequence (P30542 1-326): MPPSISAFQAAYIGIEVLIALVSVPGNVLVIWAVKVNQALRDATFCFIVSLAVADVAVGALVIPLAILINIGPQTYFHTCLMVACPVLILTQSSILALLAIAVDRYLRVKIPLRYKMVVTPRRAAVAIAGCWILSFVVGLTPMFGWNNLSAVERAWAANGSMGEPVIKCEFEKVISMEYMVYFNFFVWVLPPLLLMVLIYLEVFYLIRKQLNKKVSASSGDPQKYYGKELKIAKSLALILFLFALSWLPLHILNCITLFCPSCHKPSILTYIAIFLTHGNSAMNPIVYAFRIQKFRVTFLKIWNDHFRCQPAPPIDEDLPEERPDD
Source text: The allosteric enhancer (AE) activity was studied at the human A1AR (hA1AR) of a panel of compounds consisting of nine 2-amino-3-aroylthiophenes, (3a-i), eight 2-amino-3-benzoyl-4,5-dimethylthiophenes (13a-h), […] 3-aroyl-2-carboxy-4,5-dimethylthiophenes, (17a-e), ten 2-amino-3-benzoyl-5,6-ihydro-4H-cyclopenta[b]thiophenes, (19a-I), fourteen 2-amino-3-benzoyl-4,5,6,7-tetrahyd robenzo-[b]thiophenes, (20a-n), and fifteen 2-amino-3-benzoyl-5,6,7,8-tetrahydro-4H-cyclohepta[b]thiophenes, (21a-o). An in vitro assay employing the A1AR agonist ^125I-N^6-aminobenzyladenosine (^125I-ABA) and membranes from CHO-K1 cells stably expressing the hA1AR measured, as an index of AE activity, the ability of a candidate AE to slow the dissociation of the radioligand from the A1AR-G protein ternary complex.
The assay of AE activity consisted of three phases: formation of the ^125I-ABA-A1AR-G protein ternary complex; binding of the AE to the allosteric site, and dissociation of the complex by adding a combination of an A1AR antagonist (100 μM cyclopentyltheophylline) and 50 µM GTPγS. This procedure detects only AE activity since phase 3 (dissociation) is affected only by the allosteric activity of the test compound and is not affected by competitive antagonist activity. GTPγS is added to accelerate the dissociation process. […] The assay employed membranes from CHO-K1 cells stably expressing the hA1AR. For agonist binding to equilibrium, the incubation mixture consisted of 10 mM HEPES, pH 7.2, containing 0.5 mM MgCl2, 1 U/mL adenosine deaminase, 0.5 nM ^125I-ABA and 10 μg of membrane protein in a final volume of 100 μL. This phase of the assay was allowed to proceed to equilibrium (>90 minutes) at room temperature. At that point phase 2 was initiated by adding 50 μL of a 0.3 mM solution (0.1 mM final) of a candidate AE or DMSO vehicle to rapidly occupy the allosteric site. Stock solutions of AEs (10 mM) were prepared in DMSO. Five minutes later phase 3 was initiated by the addition of 50 μL of a solution containing 400 μM 8-cyclopentyltheophylline and 200 μM GTPγS. Ten minutes later, residual radioligand bound to Aireceptors was trapped on Whatman GF/C glass fiber filters using a Brandel cell harvester, washed 3 times over a 20 second interval and counted in a γ-counter. The percentage of specifically bound agonist remaining after 10 minutes of dissociation was used to calculate the “score” of AE activity:
AE activity score=100×(B−Bo)/(Beq−Bo)
Where B=residual binding (cpm) bound at the end of 10 minutes of dissociation in the presence of an AE, Bo=residual binding (cpm) at the end of 10 minutes of dissociation in the absence of an AE, and Beq=cpm bound at the end of phase 2. A compound with no AE activity has a score of 0 in this assay. An AE which completely arrests agonist dissociation will have a score of 100.

A1AR = molecular target: T2, A1AR (Homo sapiens, UniProt P30542); assay: A1AR antagonistic activity: competition with equilibrium binding of [3H]CPX; details: for Antagonist activity, % (% inhibition of specific equilibrium binding of [3H]8-cyclopentyl-1,3-dipropylxanthine): 100 μM, N = 3
T2 sequence (P30542 1-326): T1 sequence (P30542 1-326)
Source text: Several of the candidate AEs had substantial antagonistic activity. However, the AE and antagonist activities are unrelated (r^2=0.057, n=28).

Antagonist activity, % (% inhibition of specific equilibrium binding of [3H]8-cyclopentyl-1,3-dipropylxanthine) (A1AR) [%] | antagonist activity (in words) (A1AR; at 100 μM) | Molecule | AE Score, % (hA1AR) [%] | AE activity (in words) (hA1AR)
– | – | 3-benzoyl-4,5-dimethylthiophene-2-carboxylic acid [Compound 17a] | 0 | –
– | – | Nc1sccc1C(=O)c1cccc(F)c1 [Compound 3b] | 0 | –
– | – | Nc1sccc1C(=O)c1cccc(Cl)c1 [Compound 3c] | 0 | –
– | – | Nc1sccc1C(=O)c1cccc(Br)c1 [Compound 3d] | 0.2 ± 0.03 | –
– | – | Nc1sccc1C(=O)c1ccc(F)cc1 [Compound 3e] | 0 | –
– | – | Nc1sccc1C(=O)c1ccc(Cl)cc1 [Compound 3f] | 0 | –
– | – | Nc1sccc1C(=O)c1ccc(Br)cc1 [Compound 3g] | 0.8 ± 0.3 | –
– | – | Nc1sccc1C(=O)c1ccc(Cl)c(Cl)c1 [Compound 3h] | 1.7 ± 0.8 | –
– | – | Nc1sccc1C(=O)c1ccc2ccccc2c1 [Compound 3i] | 3.2 ± 1.8 | –
– | – | Cc1sc(N)c(C(=O)c2ccccc2)c1C [Compound 13a, (2-amino-4,5-dimethyl-thiophen-3-yl)(phenyl)methanone] | 9 | –
– | – | Cc1sc(N)c(C(=O)c2cccc(F)c2)c1C [Compound 13b] | 0 | –
– | – | Cc1sc(N)c(C(=O)c2cccc(Cl)c2)c1C [Compound 13c] | 14 ± 1 | –
– | – | Cc1sc(N)c(C(=O)c2cccc(Br)c2)c1C [Compound 13d] | 16 ± 4 | –
– | – | Cc1cccc(C(=O)c2c(N)sc(C)c2C)c1 [Compound 13e] | 18 ± 0.5 | –
– | – | Cc1sc(N)c(C(=O)c2cccc(-c3ccccc3)c2)c1C [Compound 13g] | 12 ± 1.9 | –
– | – | Cc1cc(C)c(C(=O)c2c(N)sc(C)c2C)c(C)c1 [Compound 13h] | 0 | –
– | – | Cc1sc2c(c1C)C(c1cccc(F)c1)=Nc1sc(C)c(C)c1C(c1cccc(F)c1)=N2 [Compound 14, 4,9-bis-(3-fluorophenyl)-2,3,7,8-tetramethyl-1,6-dithia-5,10-diaza-dicyclopenta[a,e]-cyclooctene] | – | lacked AE activity
– | – | Cc1sc(C(=O)O)c(C(=O)c2cccc(C(F)(F)F)c2)c1C [Compound 17b] | 0 | –
– | – | Cc1sc(C(=O)O)c(C(=O)c2ccc(-c3ccccc3)cc2)c1C [Compound 17c] | 0 | –
72 | – | CCOC(=O)c1c(N)sc2c1CCC2 [Compound 19a] | 0.4 ± 0.1 | did not support AE activity; also recorded: None of the cycloalkylthiophenes having a 3-carboxyethyl substituent, namely, 19a, 20a and 21a, was active
63 | – | Nc1sc2c(c1C(=O)c1ccccc1)CCC2 [Compound 19b] | 20 ± 3.6 | –
– | – | Nc1sc2c(c1C(=O)c1cccc(Cl)c1)CCC2 [Compound 19c] | 16 ± 2 | –
36 | – | Nc1sc2c(c1C(=O)c1ccc(F)cc1)CCC2 [Compound 19e] | 68 ± 1 | –

Antagonist activity, % (% inhibition of specific equilibrium binding of [3H]8-cyclopentyl-1,3-dipropylxanthine) (A1AR) [%] | antagonist activity (in words) (A1AR; at 100 μM) | Molecule | AE Score, % (hA1AR) [%] | AE activity (in words) (hA1AR)
40 | – | Nc1sc2c(c1C(=O)c1ccc(Cl)cc1)CCC2 [Compound 19f] | 22 ± 4 | –
– | – | Nc1sc2c(c1C(=O)c1ccc(Br)cc1)CCC2 [Compound 19g] | 70 ± 7 | –
12 | – | Nc1sc2c(c1C(=O)c1ccc(-c3ccccc3)cc1)CCC2 [Compound 19h] | 62 ± 5 | –
40 | – | Nc1sc2c(c1C(=O)c1cccc(F)c1)CCCC2 [Compound 20c] | 22 ± 5 | –
2 | – | Nc1sc2c(c1C(=O)c1cccc(Cl)c1)CCCC2 [Compound 20d] | 70 ± 9 | –
– | – | Nc1sc2c(c1C(=O)c1cccc(Br)c1)CCCC2 [Compound 20e] | 49 ± 1 | –
51 | – | Nc1sc2c(c1C(=O)c1ccc(F)cc1)CCCC2 [Compound 20f] | 17 ± 3 | –
9 | – | Nc1sc2c(c1C(=O)c1ccc(Cl)cc1)CCCC2 [Compound 20g] | 68 ± 10 | –
56 | – | Nc1sc2c(c1C(=O)c1ccc(Br)cc1)CCCC2 [Compound 20h] | 83 ± 5 | –
31 | – | Nc1sc2c(c1C(=O)c1ccc(I)cc1)CCCC2 [Compound 20i] | 86 ± 13 | –
41 | – | Cc1ccc(C(=O)c2c(N)sc3c2CCCC3)cc1 [Compound 20j] | 19 ± 7 | –
19 | – | N#Cc1ccc(C(=O)c2c(N)sc3c2CCCC3)cc1 [Compound 20k] | 19 ± 0.9 | excellent activity
45 | – | Nc1sc2c(c1C(=O)c1ccc(C3CCCCC3)cc1)CCCC2 [Compound 20m] | 99 ± 6 | –
– | – | Nc1sc2c(c1C(=O)c1ccc3ccccc3c1)CCCC2 [Compound 20n] | 86 ± 1 | –
41 | – | CCOC(=O)c1c(N)sc2c1CCCCC2 [Compound 21a] | 0.3 ± 0.01 | did not support AE activity; also recorded: None of the cycloalkylthiophenes having a 3-carboxyethyl substituent, namely, 19a, 20a and 21a, was active
0 | – | Nc1sc2c(c1C(=O)c1ccccc1)CCCCC2 [Compound 21b] | 13 ± 3.8 | –
9 | – | Nc1sc2c(c1C(=O)c1cccc(Cl)c1)CCCCC2 [Compound 21c] | 65 ± 8 | –
12 | – | Nc1sc2c(c1C(=O)c1cccc(Br)c1)CCCCC2 [Compound 21d] | 78 ± 2.6 | –
– | – | Nc1sc2c(c1C(=O)c1cccc(I)c1)CCCCC2 [Compound 21e] | 86 ± 9 | –
– | – | Nc1sc2c(c1C(=O)c1ccc(F)cc1)CCCCC2 [Compound 21f] | 22 ± 2.7 | –
– | – | Nc1sc2c(c1C(=O)c1ccc(Cl)cc1)CCCCC2 [Compound 21g] | 65 ± 6.7 | –
12 | nearly devoid of antagonist activity | Nc1sc2c(c1C(=O)c1ccc(Br)cc1)CCCCC2 [Compound 21h] | 86 ± 3.8 | very high AE activity
– | – | COc1ccc(C(=O)c2c(N)sc3c2CCCCC3)cc1 [Compound 21k] | 85 ± 10 | –

Molecule | Antagonist activity, % (% inhibition of specific equilibrium binding of [3H]8-cyclopentyl-1,3-dipropylxanthine) (A1AR) [%] | antagonist activity (in words) (A1AR; at 100 μM) | AE Score, % (hA1AR) [%] | AE activity (in words) (hA1AR)
CCOC(=O)c1c(N)sc2c1CCCC2 [Compound 20a] | 57 | – | 3.5 ± 1.8 | did not support AE activity; also recorded: None of the cycloalkylthiophenes having a 3-carboxyethyl substituent, namely, 19a, 20a and 21a, was active
Nc1sc2c(c1C(=O)c1ccccc1)CCCC2 [Compound 20b] | 35 | – | 19 ± 5 | –
